Measurements from patent US10183938B2, “Geminal substituted quinuclidine amide compounds as agonists of α-7 nicotonic acetylcholine receptors” (AXOVANT SCIENCES GMBH, priority 2014, dated 2019).
Counter-ions that a name gives are not always drawn.

Biological target: human α7 nAChRs transiently expressed in Xenopus laevis oocytes (Homo sapiens (Human), UniProt P36544)
Test: Oocyte electrophysiology screen (TEVC)
Assay type: cell-based
Settings: 0.01 mM test compound, peak current relative to 0.2 mM ACh
In short: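 Peak inward current from 0.01 mM compound, applied 30 s, is expressed relative to a 5 s 0.2 mM ACh reference response, in triplicate. Recordings used two-electrode voltage clamp at −80 mV in Xenopus oocytes with 90 s OR2 washes.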

Chain of human α7 nAChRs transiently expressed in Xenopus laevis oocytes (P36544 23-502 limits assumed): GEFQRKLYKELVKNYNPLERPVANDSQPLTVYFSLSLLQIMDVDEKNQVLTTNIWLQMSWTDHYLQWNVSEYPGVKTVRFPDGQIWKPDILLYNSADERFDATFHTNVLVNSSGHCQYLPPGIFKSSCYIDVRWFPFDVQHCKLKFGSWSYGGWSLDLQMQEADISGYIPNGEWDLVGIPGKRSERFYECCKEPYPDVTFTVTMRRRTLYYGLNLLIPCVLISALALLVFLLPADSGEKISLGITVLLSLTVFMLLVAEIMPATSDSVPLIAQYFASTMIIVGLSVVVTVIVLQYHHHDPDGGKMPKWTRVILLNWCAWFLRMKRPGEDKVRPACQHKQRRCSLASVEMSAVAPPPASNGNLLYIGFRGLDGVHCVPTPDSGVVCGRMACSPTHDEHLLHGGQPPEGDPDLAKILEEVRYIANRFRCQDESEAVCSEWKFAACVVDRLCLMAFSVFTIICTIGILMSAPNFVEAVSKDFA

Q: With CC1(C)[C@@H](NC(=O)c2cc3cccc(Cl)c3s2)C2CCN1CC2 [(S)-3, (S)-7-chloro-N-(2,2-dimethylquinuclidin-3-yl)benzo[b]thiophene-2-carboxamide hydrochloride] as the compound, how does the “% ACh @ 10 μM Oocyte” value read?
A: 22 % ACh

Q: How did the “% ACh @ 10 μM Oocyte” value turn out when CC1(C)[C@@H](NC(=O)c2cc3cc(F)ccc3s2)C2CCN1CC2 [(S)-11, (S)—N-(2,2-dimethylquinuclidin-3-yl)-5-fluorobenzo[b]thiophene-2-carboxamide hydrochloride] was run?
A: 9 % ACh

Q: How did the “% ACh @ 10 μM Oocyte” value turn out when CC1(C)[C@@H](NC(=O)c2ccc3occc3c2)C2CCN1CC2 [(S)-6, (S)—N-(2,2-dimethylquinuclidin-3-yl)benzofuran-5-carboxamide hydrochloride] was run?
A: 2 % ACh

Q: How did the “% ACh @ 10 μM Oocyte” value turn out when Cn1cnc2ccc(C(=O)N[C@@H]3C4CCN(CC4)C34CC4)cc21 [(R)-96, (R)-1-methyl-N-(1′-azaspiro[cyclopropane-1,2′-bicyclo[2.2.2]octan]-3′-yl)-1H-benzo[d]imidazole-6-carboxamide hydrochloride] was run?
A: 0 % ACh

Q: With Cc1ccc2sc(C(=O)N[C@H]3C4CCN(CC4)C3(C)C)cc2c1 [(S)-16, (S)—N-(2,2-dimethylquinuclidin-3-yl)-5-methylbenzo[b]thiophene-2-carboxamide hydrochloride] as the compound, how does the “% ACh @ 10 μM Oocyte” value read?
A: 2 % ACh

Q: For Cc1coc2ccc(C(=O)N[C@@H]3C4CCN(CC4)C34CC4)cc12 [(R)-93, (R)-3-methyl-N-(1′-azaspiro[cyclopropane-1,2′-bicyclo[2.2.2]octan]-3′-yl)benzofuran-5-carboxamide hydrochloride], which “% ACh @ 10 μM Oocyte” value is on record?
A: 516 % ACh

Q: Which “% ACh @ 10 μM Oocyte” value does the source give for CC1(C)[C@@H](NC(=O)c2cc3cccc(C(F)(F)F)c3s2)C2CCN1CC2 [(S)-7, (S)—N-(2,2-dimethylquinuclidin-3-yl)-7-(trifluoromethyl)benzo[b]thiophene-2-carboxamide hydrochloride] here?
A: 2 % ACh

Q: How did the “% ACh @ 10 μM Oocyte” value turn out when COc1ccc2sc(C(=O)N[C@H]3C4CCN(CC4)C3(C)C)cc2c1 [(S)-21, (S)—N-(2,2-dimethylquinuclidin-3-yl)-5-methoxybenzo[b]thiophene-2-carboxamide hydrochloride] was run?
A: 1 % ACh

Q: With O=C(NC1C2CCN(CC2)C12CC2)c1cc2cc(Cl)c(Cl)cc2s1 (single isomer, unassigned; enantiomer2) [67b, 5,6-dichloro-N-(1′-azaspiro[cyclopropane-1,2′-bicyclo[2.2.2]octan]-3′-yl)benzo[b]thiophene-2-carboxamide-enantiomer2 hydrochloride] as the compound, how does the “% ACh @ 10 μM Oocyte” value read?
A: 1 % ACh

Q: For O=C(NC1C2CCN(CC2)C12CC2)c1cc2ccc(C(F)(F)F)cc2s1 (single isomer, unassigned; enantiomer1) [63a, N-(1′-azaspiro[cyclopropane-1,2′-bicyclo[2.2.2]octan]-3′-yl)-6-(trifluoromethyl)benzo[b]thiophene-2-carboxamide-enantiomer1], which “% ACh @ 10 μM Oocyte” value is on record?
A: 3 % ACh

Q: How did the “% ACh @ 10 μM Oocyte” value turn out when O=C(N[C@@H]1C2CCN(CC2)C12CC2)c1cnn2ncccc12 [(R)-80, (R)—N-(1′-azaspiro[cyclopropane-1,2′-bicyclo[2.2.2]octan]-3′-yl)pyrazolo[1,5-b]pyridazine-3-carboxamide hydrochloride] was run?
A: 0 % ACh

Q: How did the “% ACh @ 10 μM Oocyte” value turn out when CC(C)Oc1ccc2cc(C(=O)N[C@@H]3C4CCN(CC4)C34CC4)sc2c1 [(R)-102, (R)-6-isopropoxy-N-(1′-azaspiro[cyclopropane-1,2′-bicyclo[2.2.2]octan]-3′-yl)benzo[b]thiophene-2-carboxamide hydrochloride] was run?
A: 1 % ACh

Q: O=C(N[C@@H]1C2CCN(CC2)C12CC2)c1cc2ccc(-n3ccnn3)cc2s1 [(R)-98, (R)—N-(1′-azaspiro[cyclopropane-1,2′-bicyclo[2.2.2]octan]-3′-yl)-6-(1H-1,2,3-triazol-1-yl)benzo[b]thiophene-2-carboxamide hydrochloride] was tested. Which “% ACh @ 10 μM Oocyte” value did it give?
A: 3 % ACh

Q: Which “% ACh @ 10 μM Oocyte” value does the source give for CC1(C)[C@H](NC(=O)c2cc3ccc(N)cc3s2)C2CCN1CC2 [(R)-49, (R)-6-amino-N-(2,2-dimethylquinuclidin-3-yl)benzo[b]thiophene-2-carboxamide hydrochloride] here?
A: 576 % ACh

Q: Which “% ACh @ 10 μM Oocyte” value does the source give for O=C(NC1C2CCN(CC2)C12CC2)c1cc2ccc(F)cc2s1 (single isomer, unassigned; enantiomer2) [61b, 6-fluoro-N-(1′-azaspiro[cyclopropane-1,2′-bicyclo[2.2.2]octan]-3′-yl)benzo[b]thiophene-2-carboxamide-enantiomer2] here?
A: 1 % ACh

Q: For Cc1nc2cc(C(=O)N[C@@H]3C4CCN(CC4)C34CC4)ccc2s1 [(R)-87, (R)-2-methyl-N-(1′-azaspiro[cyclopropane-1,2′-bicyclo[2.2.2]octan]-3′-yl)benzo[d]thiazole-5-carboxamide hydrochloride], which “% ACh @ 10 μM Oocyte” value is on record?
A: 341 % ACh

Q: With O=C(N[C@@H]1C2CCN(CC2)C12CC2)c1cc2cccnc2s1 [(R)-81, (R)—N-(1′-azaspiro[cyclopropane-1,2′-bicyclo[2.2.2]octan]-3′-yl)thieno[2,3-b]pyridine-2-carboxamide hydrochloride] as the compound, how does the “% ACh @ 10 μM Oocyte” value read?
A: 449 % ACh

Q: How did the “% ACh @ 10 μM Oocyte” value turn out when COc1ccc2cc(C(=O)N[C@H]3C4CCN(CC4)C3(C)C)sc2c1 [(S)-20, (S)—N-(2,2-dimethylquinuclidin-3-yl)-6-methoxybenzo[b]thiophene-2-carboxamide hydrochloride] was run?
A: 5 % ACh

Q: For O=C(N[C@H]1C2CCN(CC2)C12CC2)c1cc2ccoc2cn1 [(S)-75, (S)—N-(1′-azaspiro[cyclopropane-1,2′-bicyclo[2.2.2]octan]-3′-yl)furo[2,3-c]pyridine-5-carboxamide hydrochloride], which “% ACh @ 10 μM Oocyte” value is on record?
A: 14 % ACh

Q: For CC1(C)[C@@H](NC(=O)c2cc3ccc(C#N)cc3s2)C2CCN1CC2 [(S)-9, (S)-6-cyano-N-(2,2-dimethylquinuclidin-3-yl)benzo[b]thiophene-2-carboxamide hydrochloride], which “% ACh @ 10 μM Oocyte” value is on record?
A: 1 % ACh

Q: For Cc1ccc2cc(C(=O)N[C@H]3C4CCN(CC4)C3(C)C)sc2c1 [(S)-15, (S)—N-(2,2-dimethylquinuclidin-3-yl)-6-methylbenzo[b]thiophene-2-carboxamide hydrochloride], which “% ACh @ 10 μM Oocyte” value is on record?
A: 3 % ACh

Q: With O=C(NC1C2CCN(CC2)C12CC2)c1ccc2occc2c1 (single isomer, unassigned; enantiomer2) [59b, N-(1′-azaspiro[cyclopropane-1,2′-bicyclo[2.2.2]octan]-3′-yl)benzofuran-5-carboxamide-enantiomer2] as the compound, how does the “% ACh @ 10 μM Oocyte” value read?
A: 27 % ACh

Q: For CC1(C)[C@@H](NC(=O)c2cc3ccoc3cn2)C2CCN1CC2 [(S)-22, (S)—N-(2,2-dimethylquinuclidin-3-yl)furo[2,3-c]pyridine-5-carboxamide hydrochloride], which “% ACh @ 10 μM Oocyte” value is on record?
A: 25 % ACh

Q: For CC1(C)[C@H](NC(=O)c2ccc3cc[nH]c3c2)C2CCN1CC2 [(R)-26, (R)—N-(2,2-dimethylquinuclidin-3-yl)-1H-indole-6-carboxamide hydrochloride], which “% ACh @ 10 μM Oocyte” value is on record?
A: 687 % ACh

Q: With CC1(C)[C@@H](NC(=O)c2cnn3ncccc23)C2CCN1CC2 [(S)-27, (S)—N-(2,2-dimethylquinuclidin-3-yl)pyrazolo[1,5-b]pyridazine-3-carboxamide hydrochloride] as the compound, how does the “% ACh @ 10 μM Oocyte” value read?
A: 0 % ACh

Q: For CC1(C)[C@H](NC(=O)c2cc3ccc(-n4ccnn4)cc3s2)C2CCN1CC2.Cl [(R)-208, (R)-N-(2,2-dimethylquinuclidin-3-yl)-6-(1H-1,2,3-triazol-1-yl)benzo[b]thiophene-2-carboxamide hydrochloride], which “% ACh @ 10 μM Oocyte” value is on record?
A: 0 % ACh

Q: Cc1coc2ccc(C(=O)N[C@@H]3C4CCN(CC4)C3(C)C)cc12 [(R)-40, (R)—N-(2,2-dimethylquinuclidin-3-yl)-3-methylbenzofuran-5-carboxamide hydrochloride] was tested. Which “% ACh @ 10 μM Oocyte” value did it give?
A: 517 % ACh

Same assay, conditions: 0.01 mM test compound, peak current relative to 0.2 mM ACh; hydrochloride

Q: With Nc1ccc2cc(C(=O)NC3C4CCN(CC4)C34CC4)sc2c1 (single isomer, unassigned; enantiomer2) [62b, 6-amino-N-(1′-azaspiro[cyclopropane-1,2′-bicyclo[2.2.2]octan]-3′-yl)benzo[b]thiophene-2-carboxamide-enantiomer2 hydrochloride] as the compound, how does the “% ACh @ 10 μM Oocyte” value read?
A: 995 % ACh

Q: O=C(NC1C2CCN(CC2)C12CC2)c1cc2ccccc2s1 (single isomer, unassigned; enantiomer2) [54b, N-(1′-azaspiro[cyclopropane-1,2′-bicyclo[2.2.2]octan]-3′-yl)benzo[b]thiophene-2-carboxamide-enantiomer2 hydrochloride] was tested. Which “% ACh @ 10 μM Oocyte” value did it give?
A: 1319 % ACh

Q: With O=C(NC1C2CCN(CC2)C12CC2)c1cc2cccc(F)c2s1 (single isomer, unassigned; enantiomer1) [57a, 7-fluoro-N-(1′-azaspiro[cyclopropane-1,2′-bicyclo[2.2.2]octan]-3′-yl)benzo[b]thiophene-2-carboxamide-enantiomer1 hydrochloride] as the compound, how does the “% ACh @ 10 μM Oocyte” value read?
A: 386 % ACh

Q: With O=C(NC1C2CCN(CC2)C12CC2)c1cc2ccccc2s1 (single isomer, unassigned; enantiomer1) [54a, N-(1′-azaspiro[cyclopropane-1,2′-bicyclo[2.2.2]octan]-3′-yl)benzo[b]thiophene-2-carboxamide-enantiomer1 hydrochloride] as the compound, how does the “% ACh @ 10 μM Oocyte” value read?
A: 4.5 % ACh

Q: For O=C(NC1C2CCN(CC2)C12CC2)c1cc2cccc(F)c2s1 (single isomer, unassigned; enantiomer2) [57b, 7-fluoro-N-(1′-azaspiro[cyclopropane-1,2′-bicyclo[2.2.2]octan]-3′-yl)benzo[b]thiophene-2-carboxamide-enantiomer2 hydrochloride], which “% ACh @ 10 μM Oocyte” value is on record?
A: 4 % ACh
